This note sets out measurements from patent US20250144247A1, “FORMULATIONS TO ENHANCE THE DELIVERY OF GENE THERAPY VECTORS” (priority 2023, published 2025).

Structures are written as SMILES.

Data set [1] has as its system human airway epithelial cells (HAE). Format: cell-based.
In data set [2] the test system is mouse airways. Nature of the data set: Adenoviral transduction of mouse airways (Ad-luciferase, IVIS). The format is in vivo, Balb/c mice. The settings on record: Ad-luciferase intratracheal, 7% NaCl vs 0.9% NaCl, five days. On the procedure:
6-8-week-old Balb/c mice were sedated with ketamine/xylazine (87.5+2.5 mg/kg). Ad-CMV-firefly luciferase was delivered intratracheally with 1×10^9 TU formulated with NaCl (0.9% or 7% final) in a 50 ul volume. 5 days later mice were given intraperitoneal D-luciferin (50227, Millipore Sigma, St. Louis, MO) imaged for luminescence expression using the Xenogen IVIS-200.

The nature of data set [3]: Osmolarity and pH of the solutions. The format is physicochemical.

Consider `[Cl-].[Na+]` [NaCl, sodium chloride], for which the “transduction of primary human CF cultures, GP64 HIV-GFP” value in data set [1] (MOI=50, NaCl formulation) is “remarkable levels of transduction”. Moreover, the “GFP expression, GP64 HIV vector” value in data set [1] (non-CF HAE, 3.5, 4 or 4.5% NaCl, MOI=50) is recorded as “dose-dependent increase in GFP expression”. For the same compound, the “luciferase expression (bioluminescence)” value in data set [2] was “significantly increased expression in the nose and lung”. In addition, the Osmolarity was found to be 310 mOsmol/l in data set [3] (0.9% solution); 342 mOsmol/l in data set [3] (1% solution); 684 mOsmol/l in data set [3] (2% solution); 1027 mOsmol/l in data set [3] (3% solution); 1230 mOsmol/l in data set [3] (3.6% solution); 1369 mOsmol/l in data set [3] (4% solution). The Osmolarity in data set [3] (5% solution) came to 1711 mOsmol/l; in data set [3] (6% solution) it was 2053 mOsmol/l; in data set [3] (7% solution), 2693 mOsmol/l. Moreover, in data set [3] (3.6% NaCl in deionized water), the “unadjusted pH” value is on record as ~6.
